Assay results: the NIST ThermoML archive (doi:10.1016/j.jct.2010.06.011)

Test: xn = mol fraction of the nth substance listed
Details: Liquid, Vibrating tube method

COC(=O)OC [dimethyl carbonate] + CCCCCC
mass density [kg/m3]
Details | 100 kPa | 5000 kPa | 10000 kPa | 20000 kPa | 30000 kPa | 40000 kPa
293.15 K, x1 = 0.1 | 684.2 | 689.7 | 694.6 | 703.9 | 712.2 | 719.8
293.15 K, x1 = 0.2 | 712 | 717.6 | 722.6 | 732 | 740.4 | 748.1
293.15 K, x1 = 0.3 | 742.7 | 748.3 | 753.3 | 762.8 | 771.3 | 779.2
293.15 K, x1 = 0.4 | 776.5 | 782.1 | 787.2 | 796.7 | 805.3 | 813.2
293.15 K, x1 = 0.5 | 813.8 | 819.4 | 824.5 | 834 | 842.6 | 850.6
293.15 K, x1 = 0.6 | 855 | 860.5 | 865.5 | 875 | 883.6 | 891.5
293.15 K, x1 = 0.7 | 900.5 | 905.9 | 910.9 | 920.2 | 928.7 | 936.6
293.15 K, x1 = 0.8 | 951.6 | 956.8 | 961.6 | 970.7 | 978.9 | 986.8
293.15 K, x1 = 0.9 | 1008.5 | 1013.4 | 1018 | 1026.7 | 1034.6 | 1042.3
293.15 K, x1 = 0.95 | 1038.4 | 1043.2 | 1047.6 | 1056.1 | 1063.9 | 1071.5
293.15 K, x1 = 1 | 1069.8 | 1074.4 | 1078.6 | 1086.9 | 1094.5 | 1101.9
298.15 K, x1 = 0.1 | 679.5 | 685.1 | 690.3 | 699.8 | 708.4 | 716
298.15 K, x1 = 0.2 | 707 | 712.8 | 718 | 727.7 | 736.4 | 744.2
298.15 K, x1 = 0.3 | 737.5 | 743.3 | 748.6 | 758.3 | 767.2 | 775.1
298.15 K, x1 = 0.4 | 771.1 | 776.9 | 782.2 | 792 | 800.9 | 808.9
298.15 K, x1 = 0.5 | 808.2 | 814 | 819.3 | 829.1 | 838 | 846.1
298.15 K, x1 = 0.6 | 849.2 | 854.9 | 860.2 | 869.9 | 878.8 | 886.9
298.15 K, x1 = 0.7 | 894.5 | 900.2 | 905.3 | 914.9 | 923.7 | 931.7
298.15 K, x1 = 0.8 | 945.4 | 950.8 | 955.8 | 965.1 | 973.7 | 981.6
298.15 K, x1 = 0.9 | 1002.1 | 1007.3 | 1012 | 1020.8 | 1029.1 | 1036.9
298.15 K, x1 = 0.95 | 1032 | 1036.9 | 1041.5 | 1050.2 | 1058.2 | 1065.9
298.15 K, x1 = 1 | 1063.2 | 1068 | 1072.4 | 1080.8 | 1088.7 | 1096.2
303.15 K, x1 = 0.1 | 674.6 | 680.3 | 685.7 | – | – | –
303.15 K, x1 = 0.2 | 701.9 | 707.7 | 713.3 | – | – | –
303.15 K, x1 = 0.3 | 732.2 | 738 | 743.6 | – | – | –
303.15 K, x1 = 0.4 | 765.6 | 771.5 | 777.1 | – | – | –
303.15 K, x1 = 0.5 | 802.5 | 808.3 | 813.9 | – | – | –
303.15 K, x1 = 0.6 | 843.3 | 849.5 | 855 | – | – | –
303.15 K, x1 = 0.7 | 888.5 | 894.5 | 899.9 | – | – | –
303.15 K, x1 = 0.8 | 939.1 | 944.8 | 950 | – | – | –
303.15 K, x1 = 0.9 | 995.7 | 1000.9 | 1005.9 | – | – | –
303.15 K, x1 = 0.95 | 1025.4 | 1030.4 | 1035.2 | – | – | –
303.15 K, x1 = 1 | 1056.5 | 1061.3 | 1066 | – | – | –
